In test [1] the target is biotinylated human IL-17A / AF647-labeled human IL-17RA (Homo sapiens, UniProt Q16552). As to the kind of experiment: Human IL-17A×IL-17RA TR-FRET assay. It counts as binding. Particulars: TR-FRET. Here is the method:
Human IL-17A×IL-17RA TR-FRET Assay
Each compound concentration is tested in duplicate.
The final total assay volume is 10 μL.
Each plate contains test compounds in columns 1-22 and controls in columns 23 and 24. The neutral control (NC) contains all the assay components, but DMSO instead of test compound. […] The fluorescence values for emission at 615 nm and 665 nm are loaded to the evaluation software Helios.
From the activity data at each compound concentration, the IC50 values are obtained using the 4-parameter logistic function (“Hill-slope model”) of Helios.
Background: In TR-FRET formats the signal depends on donor and acceptor labels being close together.

Test [2] addresses recombinant human IL-17AA (Homo sapiens, UniProt Q16552). Put plainly: IL-6 release from NHDF cells, IL-17AA plus TNF-α stimulation. The test is classed as cell-based. Particulars: NHDF cells, 24 hours, IL-6 by ELISA. Here is the method: IL-6 Release from NHDF Cells (Normal Human Dermal Fibroblasts)
NHDF cells isolated from normal adult mesoderm, connective tissues were cultured in fibroblast growth medium containing 2% supplement. […] The cells were allowed to adhere overnight before they were incubated with the compound/cytokine cocktail.
Diluted compounds were pre-incubated with recombinant human IL-17AA or IL-17AF plus human TNF-α for 30 minutes at room temperature on a shaker. […] The cells were incubated with the compound/cytokines cocktail for 24 hours at 37° C. (5% CO2). […] The final DMSO or plasma concentrations were 0.1% or 20%, respectively. All compound incubations were done in duplicate. The supernatants were collected to quantify IL-6 by ELISA according to the manufacturers instructions. The optical density was measured at 450 nm by an EnVision Multilabel Plate Reader (Perkin Elmer). The IL-6 levels produced after TNF-α stimulation were subtracted from the IL-6 produced after IL-17/TNF-α co-stimulation. These IL-17-specific IL-6 concentrations were used for […] value calculation.
(In general: ELISA stands for enzyme-linked immunosorbent assay.)

Setting [3] is: biotinylated human IL-17A 5 nM, AF647-labeled human IL-17RA 30 nM, read-out: IL17AA FRET/ IL17Rawt IC50.
The mark [4] stands for this setting: IL-17AA 30 pM plus TNF-α 6 pM, read-out: IL17AA + TNF IC50 IL-6.
Setting [5] is: 5 nM IL-17A, 30 nM IL-17RA, read-out: IL17AA FRET/ IL17Rawt IC50.
Where [6] appears, read: 5 nM IL-17A, 30 nM IL-17RA, reference examples (pyridines), read-out: IL17AA FRET/ IL17RAwt IC50.

The structures appear in SMILES notation. Like-named read-outs stand apart in the source and are kept apart here.

recombinant human IL-17AA, sequence (Q16552 24-155): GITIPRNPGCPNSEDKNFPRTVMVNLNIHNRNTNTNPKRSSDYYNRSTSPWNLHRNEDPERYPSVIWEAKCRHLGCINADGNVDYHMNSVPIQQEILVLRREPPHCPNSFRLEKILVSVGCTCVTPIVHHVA
biotinylated human IL-17A / AF647-labeled human IL-17RA, sequence (Q16552 24-155): as above

For the molecule `CCc1nocc1C(=O)N[C@H](C(=O)Nc1ccc(-c2c(C)cc[n+]([O-])c2C)cc1)C1CCC(F)(F)C1` (mixture of isomers) [Example 86, 3-(4-((2S)-2-(3,3-difluorocyclopentyl)-2-(3-ethylisoxazole-4-carboxamido)acetamido)phenyl)-2,4-dimethylpyridine 1-oxide], the IC50 in test [1] (setting [3]) is 119 nM; in test [2] (setting [4]), 232 nM. For the molecule `Cc1c(-c2ccc(NC(=O)[C@@H](NC(=O)c3ccnn3C)C3CCCCC3)cc2F)c(Cl)cc[n+]1[O-]` (single isomer, unassigned) [Example 2a], the IC50 in test [1] (setting [3]) came out at 49 nM; in test [2] (setting [4]) it was 37 nM. As for `Cc1c(-c2ccc(NC(=O)[C@@H](NC(=O)c3ccnn3C)C3CCCCC3)cc2F)c(Cl)cc[n+]1[O-]` (single isomer, unassigned) [Example 2b], the results for the IC50 in test [1] (setting [3]) and in test [2] (setting [4]) were 17 nM and 14 nM, respectively.

As to `Cc1cc[n+]([O-])c(C)c1-c1ccc(NC(=O)[C@@H](NC(=O)c2ccnn2C)[C@H]2CC=C(F)CC2)cc1` (single isomer, unassigned) [Example 12a, 3-(4-((S)-2-((R)-4-fluorocyclohex-3-en-1-yl)-2-(1-methyl-1H-pyrazole-5-carboxamido)acetamido)phenyl)-2,4-dimethylpyridine 1-oxide or 3-(4-((S)-2-((S)-4-fluorocyclohex-3-en-1-yl)-2-(1-methyl-1H-pyrazole-5-carboxamido)acetamido)phenyl)-2,4-dimethylpyridine 1-oxide], the figures for the IC50 in test [1] (setting [3]) and in test [2] (setting [4]) were 112 nM and 17 nM, respectively. Take `Cc1cc[n+]([O-])c(C)c1-c1ccc(NC(=O)[C@@H](NC(=O)c2ccnn2C)[C@H]2CC=C(F)CC2)cc1` (single isomer, unassigned) [Example 12b, 3-(4-((S)-2-((R)-4-fluorocyclohex-3-en-1-yl)-2-(1-methyl-1H-pyrazole-5-carboxamido)acetamido)phenyl)-2,4-dimethylpyridine 1-oxide or 3-(4-((S)-2-((S)-4-fluorocyclohex-3-en-1-yl)-2-(1-methyl-1H-pyrazole-5-carboxamido)acetamido)phenyl)-2,4-dimethylpyridine 1-oxide]: the IC50 in test [1] (setting [3]) was 151 nM; in test [2] (setting [4]), 8 nM. For `Cc1nocc1C(=O)NC(C(=O)Nc1ccc(-c2c(Cl)cc[n+]([O-])c2C)cc1)C1CC2CC2C1` (single isomer, unassigned) [Example 146], the IC50 in test [2] (IL-17AA 30 pM + TNF-α 6 pM, read-out: IL17AA + TNF IC50 IL-6) turned out to be 57 nM. On to `Cc1c(-c2ccc(NC(=O)[C@@H](NC(=O)c3ccnn3C)C3CCCCC3)cc2F)ccc[n+]1[O-]` [Example 83, (S)-3-(4-(2-cyclohexyl-2-(1-methyl-1H-pyrazole-5-carboxamido)acetamido)-2-fluorophenyl)-2-methylpyridine 1-oxide], for which the IC50 in test [2] (setting [4]) was found to be 115 nM. On the same count and under the same terms, then `Cc1c(-c2ccc(NC(=O)[C@@H](NC(=O)c3ccnn3C)[C@H]3CCCC(F)(F)C3)cc2F)c(Cl)cc[n+]1[O-]` [Example 110, 4-chloro-3-(4-((S)-2-((S)-3,3-difluorocyclohexyl)-2-(1-methyl-1H-pyrazole-5-carboxamido)acetamido)-2-fluorophenyl)-2-methylpyridine 1-oxide], with 8 nM. Turning to `CC(=O)N1CCn2c(ccc2C(=O)N[C@H](C(=O)Nc2ccc(-c3c(C(F)(F)F)cc[n+]([O-])c3C)cc2)C2CCC(F)(F)CC2)C1` [Example 210, (S)-3-(4-(2-(2-acetyl-1,2,3,4-tetrahydropyrrolo[1,2-a]pyrazine-6-carboxamido)-2-(4,4-difluorocyclohexyl)acetamido)phenyl)-2-methyl-4-(trifluoromethyl)pyridine 1-oxide], the IC50 in test [1] (setting [5]) was 478 nM. Still for that read-out and setting: in the case of `Cc1c(-c2ccc(NC(=O)C(NC(=O)c3ccc4n3CCNC4)[C@@H]3C[C@@H]4[C@H](C3)C4(F)F)cc2)c(Cl)cc[n+]1[O-]` (stereo partly drawn) [Example 211, 4-chloro-3-(4-(2-((1R,3s,5S)-6,6-difluorobicyclo[3.1.0]hexan-3-yl)-2-(1,2,3,4-tetrahydropyrrolo[1,2-a]pyrazine-6-carboxamido)acetamido)phenyl)-2-methylpyridine 1-oxide] it was 499 nM. Still for that read-out and setting: then `Cc1cc[n+]([O-])c(C)c1-c1ccc(NC(=O)C(NC(=O)c2ccc3n2CCN(C)C3)C(C)c2ccccc2Cl)cc1` (centres unmarked) [Example 212, 3-(4-(3-(2-chlorophenyl)-2-(2-methyl-1,2,3,4-tetrahydropyrrolo[1,2-a]pyrazine-6-carboxamido)butanamido)phenyl)-2,4-dimethylpyridine 1-oxide], with 502 nM. The same measure, in the same setting: then `Cc1cc[n+]([O-])c(C)c1-c1ccc(NC(=O)[C@@H](NC(=O)c2ccc3n2CCN(C)C3)C2CCC(F)CC2)cc1` (stereo partly drawn) [Example 214, 3-(4-((2S)-2-(4-fluorocyclohexyl)-2-(2-methyl-1,2,3,4-tetrahydropyrrolo[1,2-a]pyrazine-6-carboxamido)acetamido)phenyl)-2,4-dimethylpyridine 1-oxide], with 690 nM; and `Cc1cc[n+]([O-])c(C)c1-c1ccc(NC(=O)[C@@H](NC(=O)c2ccc3n2CCNC3)C(C)c2ccccc2Cl)cc1` (stereo partly drawn) [Example 216, 3-(4-((2S)-3-(2-chlorophenyl)-2-(1,2,3,4-tetrahydropyrrolo[1,2-a]pyrazine-6-carboxamido)butanamido)phenyl)-2,4-dimethylpyridine 1-oxide], with 796 nM; and `Cc1cc[n+]([O-])c(C)c1-c1ccc(NC(=O)C(NC(=O)c2ccc3n2CCNC3)C2CCC(C)CC2)cc1` [Example 220, 2,4-dimethyl-3-(4-((S)-2-((1r,4S)-4-methylcyclohexyl)-2-(1,2,3,4-tetrahydropyrrolo[1,2-a]pyrazine-6-carboxamido)acetamido)phenyl)pyridine 1-oxide], with 2310 nM. Turning to `Cc1cc[n+]([O-])c(C)c1-c1ccc(NC(=O)C(NC(=O)c2ccnn2C)C2CC(F)CC(F)C2)cc1` (centres unmarked) [Example 222, 3-(4-(2-(3,5-difluorocyclohexyl)-2-(1-methyl-1H-pyrazole-5-carboxamido)acetamido)phenyl)-2,4-dimethylpyridine 1-oxide], in test [1] (setting [5]), the IC50 amounted to 7290 nM. Turning to `CCn1nccc1C(=O)N[C@H](C(=O)Nc1ccc(-c2c(C(F)(F)F)cc[n+]([O-])c2C)cc1)C1CC2CC2C1` (stereo partly drawn) [Example 223, 3-(4-((2S)-2-(bicyclo[3.1.0]hexan-3-yl)-2-(1-ethyl-1H-pyrazole-5-carboxamido)acetamido)phenyl)-2-methyl-4-(trifluoromethyl)pyridine 1-oxide], in test [1] (setting [5]), the IC50 is 9080 nM. As to `Cc1nccc(Cl)c1-c1ccc(NC(=O)[C@@H](NC(=O)c2ccnn2C)C2CCCCC2)cc1F` [compound 137, N-((1S)-2-((4-(4-chloro-2-methylpyridin-3-yl)-3-fluorophenyl)amino)-1-cyclohexyl-2-oxoethyl)-1-methyl-1H-pyrazole-5-carboxamide, reference compound], in test [2] (IL-17AA 30 pM + TNF-α 6 pM, reference examples (pyridines), read-out: IL 17AA + TNF IC50 IL-6), the IC50 was determined as 578 nM.

Take `CCc1nocc1C(=O)N[C@H](C(=O)Nc1ccc(-c2c(Cl)ccnc2C)cc1)[C@H]1CCCC(F)(F)C1` [compound 140, N-((S)-2-((4-(4-chloro-2-methylpyridin-3-yl)phenyl)amino)-1-((S)-3,3-difluorocyclohexyl)-2-oxoethyl)-3-ethylisoxazole-4-carboxamide, reference compound]: the IC50 in test [1] (setting [6]) stood at 1220 nM.

Consider `CCn1nccc1C(=O)N[C@H](C(=O)Nc1ccc(-c2c(C)ccnc2C)cc1)[C@H]1CC[C@H](C(F)(F)F)CC1` [compound 141, N-((S)-2-((4-(2,4-dimethylpyridin-3-yl)phenyl)amino)-2-oxo-1-((1r,4S)-4-(trifluoromethyl)cyclohexyl)ethyl)-1-ethyl-1H-pyrazole-5-carboxamide, reference compound], for which, in test [1] (setting [6]), the IC50 turned out to be 2630 nM. The same measure, in the same setting: in the case of `CCc1nocc1C(=O)N[C@H](C(=O)Nc1ccc(-c2c(C)ccnc2C)cc1)[C@H]1CC[C@H](C(F)(F)F)CC1` [compound 142, N-((S)-2-((4-(2,4-dimethylpyridin-3-yl)phenyl)amino)-2-oxo-1-((1r,4S)-4-(trifluoromethyl)cyclohexyl)ethyl)-3-ethylisoxazole-4-carboxamide, reference compound] it was 4380 nM; in that of `Cc1nocc1C(=O)N[C@H](C(=O)Nc1ccc(-c2c(C(F)(F)F)ccnc2C)cc1)[C@H]1CCCC(F)(F)C1` [compound 143, N-((S)-1-((S)-3,3-difluorocyclohexyl)-2-((4-(2-methyl-4-(trifluoromethyl)pyridin-3-yl)phenyl)amino)-2-oxoethyl)-3-methylisoxazole-4-carboxamide, reference compound], 851 nM.

The record behind these values is patent US12600728B2, “Interleukin-17 inhibitors” (priority 2020, dated 2026).
